In ChEMBL document CHEMBL1275409, “Antimicrobial-resistant pathogens in intensive care units in Canada: results of the Canadian National Intensive Care Unit (CAN-ICU) study, 2005-2006” (2008):

Tests used:
Format in all cases: functional
Klebsiella pneumoniae [1] = experiment: Antimicrobial activity against ESBL producing Klebsiella pneumoniae isolated from ICU patient respiratory tract assessed as resistant isolates by broth microdilution method
Enterobacter cloacae [2] = experiment: Antimicrobial activity against carbapenem-resistant Enterobacter cloacae isolated from ICU patient urine assessed as resistant isolates by broth microdilution method
Pseudomonas aeruginosa [3] = experiment: Antimicrobial activity against carbapenem-resistant Pseudomonas aeruginosa assessed as resistant isolates by broth microdilution method
Klebsiella pneumoniae [4] = experiment: Antimicrobial activity against ESBL producing Klebsiella pneumoniae isolated from ICU patient urine assessed as resistant isolates by broth microdilution method
Enterobacter cloacae [5] = experiment: Antimicrobial activity against carbapenem-resistant Enterobacter cloacae isolated from ICU patient blood assessed as resistant isolates by broth microdilution method
Streptococcus pneumoniae [6] = experiment: Antimicrobial activity against penicillin-resistant Streptococcus pneumoniae isolated from ICU patient blood assessed as resistant isolates by broth microdilution method
Klebsiella pneumoniae [7] = experiment: Antimicrobial activity against ESBL producing Klebsiella pneumoniae isolated from ICU patient wound assessed as resistant isolates by broth microdilution method
Streptococcus pneumoniae [8] = experiment: Antimicrobial activity against penicillin-resistant Streptococcus pneumoniae isolated from ICU patient respiratory tract assessed as resistant isolates by broth microdilution method
Staphylococcus aureus [9] = experiment: Antimicrobial activity against methicillin-resistant Staphylococcus aureus assessed as resistant isolates by broth microdilution method
Staphylococcus aureus [10] = experiment: Antimicrobial activity against methicillin-susceptible Staphylococcus aureus isolated from ICU patient wound assessed as resistant isolates by broth microdilution method
[11] = tested on: Staphylococcus epidermidis; experiment: Antimicrobial activity against methicillin-resistant Staphylococcus epidermidis isolated from ICU patient wound assessed as resistant isolates by broth microdilution method
Haemophilus influenzae [12] = experiment: Antimicrobial activity against Haemophilus influenzae isolated from ICU patient respiratory tract assessed as resistant isolates by broth microdilution method
Enterobacter cloacae [13] = experiment: Antimicrobial activity against carbapenem-resistant Enterobacter cloacae assessed as resistant isolates by broth microdilution method
[14] = tested on: Staphylococcus epidermidis; experiment: Antimicrobial activity against methicillin-susceptible Staphylococcus epidermidis assessed as resistant isolates by broth microdilution method
Staphylococcus aureus [15] = experiment: Antimicrobial activity against methicillin-resistant Staphylococcus aureus isolated from ICU patient urine assessed as resistant isolates by broth microdilution method
[16] = tested on: Staphylococcus epidermidis; experiment: Antimicrobial activity against methicillin-susceptible Staphylococcus epidermidis isolated from ICU patient blood assessed as resistant isolates by broth microdilution method
Haemophilus influenzae [17] = experiment: Antimicrobial activity against Haemophilus influenzae isolated from ICU patient wound assessed as resistant isolates by broth microdilution method
Staphylococcus aureus [18] = experiment: Antimicrobial activity against methicillin-susceptible Staphylococcus aureus isolated from ICU patient blood assessed as resistant isolates by broth microdilution method
Haemophilus influenzae [19] = experiment: Antimicrobial activity against Haemophilus influenzae isolated from ICU patient blood assessed as resistant isolates by broth microdilution method
[20] = tested on: Staphylococcus epidermidis; experiment: Antimicrobial activity against methicillin-susceptible Staphylococcus epidermidis isolated from ICU patient wound assessed as resistant isolates by broth microdilution method
Enterobacter cloacae [21] = experiment: Antimicrobial activity against carbapenem-resistant Enterobacter cloacae isolated from ICU patient respiratory tract assessed as resistant isolates by broth microdilution method
[22] = tested on: Staphylococcus epidermidis; experiment: Antimicrobial activity against methicillin-resistant Staphylococcus epidermidis isolated from ICU patient urine assessed as resistant isolates by broth microdilution method
Escherichia coli [23] = experiment: Antimicrobial activity against CTX-M ESBL producing Escherichia coli isolated from ICU patient wound assessed as resistant isolates by broth microdilution method
Pseudomonas aeruginosa [24] = experiment: Antimicrobial activity against carbapenem-resistant Pseudomonas aeruginosa isolated from ICU patient wound assessed as resistant isolates by broth microdilution method
Escherichia coli [25] = experiment: Antimicrobial activity against CTX-M ESBL producing Escherichia coli isolated from ICU patient blood assessed as resistant isolates by broth microdilution method
Klebsiella pneumoniae [26] = experiment: Antimicrobial activity against ESBL producing Klebsiella pneumoniae assessed as resistant isolates by broth microdilution method
[27] = tested on: Staphylococcus epidermidis; experiment: Antimicrobial activity against methicillin-susceptible Staphylococcus epidermidis isolated from ICU patient urine assessed as resistant isolates by broth microdilution method
Staphylococcus aureus [28] = experiment: Antimicrobial activity against methicillin-susceptible Staphylococcus aureus isolated from ICU patient respiratory tract assessed as resistant isolates by broth microdilution method
Staphylococcus aureus [29] = experiment: Antimicrobial activity against methicillin-susceptible Staphylococcus aureus assessed as resistant isolates by broth microdilution method
Haemophilus influenzae [30] = experiment: Antimicrobial activity against Haemophilus influenzae assessed as resistant isolates by broth microdilution method
Streptococcus pneumoniae [31] = experiment: Antimicrobial activity against penicillin-resistant Streptococcus pneumoniae isolated from ICU patient wound assessed as resistant isolates by broth microdilution method
Escherichia coli [32] = experiment: Antimicrobial activity against CTX-M ESBL producing Escherichia coli isolated from ICU patient urine assessed as resistant isolates by broth microdilution method
Pseudomonas aeruginosa [33] = experiment: Antimicrobial activity against carbapenem-resistant Pseudomonas aeruginosa isolated from ICU patient respiratory tract assessed as resistant isolates by broth microdilution method
Streptococcus pneumoniae [34] = experiment: Antimicrobial activity against penicillin-resistant Streptococcus pneumoniae assessed as resistant isolates by broth microdilution method
Pseudomonas aeruginosa [35] = experiment: Antimicrobial activity against carbapenem-resistant Pseudomonas aeruginosa isolated from ICU patient urine assessed as resistant isolates by broth microdilution method
Staphylococcus aureus [36] = experiment: Antimicrobial activity against methicillin-resistant Staphylococcus aureus isolated from ICU patient wound assessed as resistant isolates by broth microdilution method
Staphylococcus aureus [37] = experiment: Antimicrobial activity against methicillin-resistant Staphylococcus aureus isolated from ICU patient respiratory tract assessed as resistant isolates by broth microdilution method
Pseudomonas aeruginosa [38] = experiment: Antimicrobial activity against carbapenem-resistant Pseudomonas aeruginosa isolated from ICU patient blood assessed as resistant isolates by broth microdilution method
Staphylococcus aureus [39] = experiment: Antimicrobial activity against methicillin-susceptible Staphylococcus aureus isolated from ICU patient urine assessed as resistant isolates by broth microdilution method
[40] = tested on: Staphylococcus epidermidis; experiment: Antimicrobial activity against methicillin-resistant Staphylococcus epidermidis isolated from ICU patient blood assessed as resistant isolates by broth microdilution method
[41] = tested on: Staphylococcus epidermidis; experiment: Antimicrobial activity against methicillin-susceptible Staphylococcus epidermidis isolated from ICU patient respiratory tract assessed as resistant isolates by broth microdilution method
Staphylococcus aureus [42] = experiment: Antimicrobial activity against methicillin-resistant Staphylococcus aureus isolated from ICU patient blood assessed as resistant isolates by broth microdilution method
Enterobacter cloacae [43] = experiment: Antimicrobial activity against carbapenem-resistant Enterobacter cloacae isolated from ICU patient wound assessed as resistant isolates by broth microdilution method
[44] = tested on: Staphylococcus epidermidis; experiment: Antimicrobial activity against methicillin-resistant Staphylococcus epidermidis assessed as resistant isolates by broth microdilution method
Escherichia coli [45] = experiment: Antimicrobial activity against CTX-M ESBL producing Escherichia coli assessed as resistant isolates by broth microdilution method
Escherichia coli [46] = experiment: Antimicrobial activity against CTX-M ESBL producing Escherichia coli isolated from ICU patient respiratory tract assessed as resistant isolates by broth microdilution method
Klebsiella pneumoniae [47] = experiment: Antimicrobial activity against ESBL producing Klebsiella pneumoniae isolated from ICU patient blood assessed as resistant isolates by broth microdilution method

In the case of `CO/N=C(\C(=O)N[C@@H]1C(=O)N2C(C(=O)O)=C(CSc3nc(=O)c(O)nn3C)CS[C@H]12)c1csc(N)n1` [CEFTRIAXONE], the Activity (Klebsiella pneumoniae [1]) is reported as 0%, the Activity (Enterobacter cloacae [2]) is reported as 25% and the Activity (Pseudomonas aeruginosa [3]) is reported as 30%. For the same compound, the Activity (Klebsiella pneumoniae [4]) was 0%, the Activity (Enterobacter cloacae [5]) was 29.2% and the Activity (Streptococcus pneumoniae [6]) was 0%. It also gave an Activity (Klebsiella pneumoniae [7]) of 3.9%, an Activity (Streptococcus pneumoniae [8]) of 0% and an Activity (Staphylococcus aureus [9]) of 100%. For the same compound, the Activity (Staphylococcus aureus [10]) was 0%, the Activity [11] was 100% and the Activity (Haemophilus influenzae [12]) was 0.3%. The Activity (Enterobacter cloacae [13]) was 13.9%, the Activity [14] was 8.1% and the Activity (Staphylococcus aureus [15]) was 100%. It also gave an Activity [16] of 1.8%, an Activity (Haemophilus influenzae [17]) of 0% and an Activity (Staphylococcus aureus [18]) of 0%. For the same compound, the Activity (Haemophilus influenzae [19]) was 0%, the Activity [20] was 25% and the Activity (Enterobacter cloacae [21]) was 10.2%. For the same compound, the Activity [22] was 100%, the Activity (Escherichia coli [23]) was 1.7% and the Activity (Pseudomonas aeruginosa [24]) was 30.2%. It also gave an Activity (Escherichia coli [25]) of 5.5%, an Activity (Klebsiella pneumoniae [26]) of 0.4% and an Activity [27] of 0%. For the same compound, the Activity (Staphylococcus aureus [28]) was 0%, the Activity (Staphylococcus aureus [29]) was 0% and the Activity (Haemophilus influenzae [30]) was 0.3%. The Activity (Streptococcus pneumoniae [31]) was 0%, the Activity (Escherichia coli [32]) was 4.2% and the Activity (Pseudomonas aeruginosa [33]) was 27%. For the same compound, the Activity (Streptococcus pneumoniae [34]) was 0%, the Activity (Pseudomonas aeruginosa [35]) was 33.3% and the Activity (Staphylococcus aureus [36]) was 100%. For the same compound, the Activity (Staphylococcus aureus [37]) was 100%, the Activity (Pseudomonas aeruginosa [38]) was 51.5% and the Activity (Staphylococcus aureus [39]) was 0%. It also gave an Activity [40] of 100%, an Activity [41] of 0% and an Activity (Staphylococcus aureus [42]) of 100%. The Activity (Enterobacter cloacae [43]) was 5.9%, the Activity [44] was 100% and the Activity (Escherichia coli [45]) was 3.7%. The Activity (Escherichia coli [46]) was 2.5% and the Activity (Klebsiella pneumoniae [47]) was 0%.

Work on `C[C@@H](O)[C@H]1C(=O)N2C(C(=O)O)=C(S[C@@H]3CN[C@H](C(=O)N(C)C)C3)[C@H](C)[C@H]12` [MEROPENEM] yielded an Activity (Klebsiella pneumoniae [1]) of 12.5%, an Activity (Enterobacter cloacae [2]) of 0% and an Activity (Pseudomonas aeruginosa [3]) of 0%. The Activity (Klebsiella pneumoniae [4]) was 17.8%, the Activity (Enterobacter cloacae [5]) was 0% and the Activity (Streptococcus pneumoniae [6]) was 0%. It also gave an Activity (Klebsiella pneumoniae [7]) of 18.9%, an Activity (Streptococcus pneumoniae [8]) of 0.5% and an Activity (Staphylococcus aureus [9]) of 100%. For the same compound, the Activity (Staphylococcus aureus [10]) was 0%, the Activity [11] was 100% and the Activity (Haemophilus influenzae [12]) was 0%. For the same compound, the Activity (Enterobacter cloacae [13]) was 0%, the Activity [14] was 9.3% and the Activity (Staphylococcus aureus [15]) was 100%. The Activity [16] was 1.8%, the Activity (Haemophilus influenzae [17]) was 0% and the Activity (Staphylococcus aureus [18]) was 0%. The Activity (Haemophilus influenzae [19]) was 0%, the Activity [20] was 29.2% and the Activity (Enterobacter cloacae [21]) was 0%. The Activity [22] was 100%, the Activity (Escherichia coli [23]) was 0% and the Activity (Pseudomonas aeruginosa [24]) was 0%. For the same compound, the Activity (Escherichia coli [25]) was 0%, the Activity (Klebsiella pneumoniae [26]) was 13.6% and the Activity [27] was 0%. The Activity (Staphylococcus aureus [28]) was 0%, the Activity (Staphylococcus aureus [29]) was 0% and the Activity (Haemophilus influenzae [30]) was 0%. The Activity (Streptococcus pneumoniae [31]) was 0%, the Activity (Escherichia coli [32]) was 0% and the Activity (Pseudomonas aeruginosa [33]) was 0%. The Activity (Streptococcus pneumoniae [34]) was 0.4%, the Activity (Pseudomonas aeruginosa [35]) was 0% and the Activity (Staphylococcus aureus [36]) was 100%. For the same compound, the Activity (Staphylococcus aureus [37]) was 100%, the Activity (Pseudomonas aeruginosa [38]) was 0% and the Activity (Staphylococcus aureus [39]) was 0%. It also gave an Activity [40] of 100%, an Activity [41] of 0% and an Activity (Staphylococcus aureus [42]) of 100%. For the same compound, the Activity (Enterobacter cloacae [43]) was 0%, the Activity [44] was 100% and the Activity (Escherichia coli [45]) was 0%. It also gave an Activity (Escherichia coli [46]) of 0% and an Activity (Klebsiella pneumoniae [47]) of 9.1%.
